Values quoted from earlier work as cited in PMC9145865, “Effects of Rare Phytocannabinoids on the Endocannabinoid System of Human Keratinocytes” (International Journal of Molecular Sciences, 2022).

Tested on: transformed human keratinocytes
Parameters: method as in PMID 17157480
Conditions: hyperproliferative conditions; ref [46]; cited from earlier work

| Structure (SMILES) | proliferation of transformed human keratinocytes |
| --- | --- |
| CCCCCc1cc(O)c2c(c1)OC(C)(C)[C@@H]1CCC(C)=C[C@@H]21 [Δ^9-THC, Δ^9-tetrahydrocannabinol] | inhibit the proliferation |
| C=C(C)[C@@H]1CCC(C)=C[C@H]1c1c(O)cc(CCCCC)cc1O [CBD, cannabidiol] | inhibit the proliferation |
